# According to ChEMBL document CHEMBL1201861, “Genomics of Drug Sensitity in Cancer screening data, Wellcome Trust Sanger Institute”:
# Tests used:
# Test in all cases: cells
# Conditions in all cases: Homo sapiens
# [1] = tested on: 786-0; format: functional, cell-based
# Description: SANGER: Inhibition of human 786-0 cell growth in a cell viability assay.
# [2] = tested on: MKN-1; format: functional, cell-based;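 note: growth inhibition of human MKN1 cells, read out by a cell viability measurement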
# Description: SANGER: Inhibition of human MKN1 cell growth in a cell viability assay.
# [3] = tested on: SK-MES-1; format: functional, cell-based;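 note: growth inhibition of human SK-MES-1 cells, read out with a cell viability assay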
# Description: SANGER: Inhibition of human SK-MES-1 cell growth in a cell viability assay.
# [4] = tested on: HuCCT-1; format: functional, cell-based, HuCCT1;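 note: growth inhibition of HuCCT-1 cells, read out by a cell viability assay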
# Description: SANGER: Inhibition of human HuCCT1 cell growth in a cell viability assay.
# [5] = tested on: A 172; format: functional, cell-based;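 note: growth inhibition of A172 cells, measured with a cell viability readout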
# Description: SANGER: Inhibition of human A172 cell growth in a cell viability assay.
# [6] = tested on: CAL-51; format: functional, cell-based;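 note: human CAL-51 cell line, growth inhibition read out via a cell viability assay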
# Description: SANGER: Inhibition of human CAL-51 cell growth in a cell viability assay.
# [7] = tested on: SK-MEL3; format: functional, cell-based, SK-MEL-3;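 note: growth inhibition of human SK-MEL-3 cells, read out with a cell viability assay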
# Description: SANGER: Inhibition of human SK-MEL-3 cell growth in a cell viability assay.
# [8] = tested on: NCI-H1651; format: functional, cell-based;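 note: Read-out is a cell viability assay, with IC50 expressing inhibition of NCI-H1651 cell growth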
# Description: SANGER: Inhibition of human NCI-H1651 cell growth in a cell viability assay.
# [9] = tested on: CaR-1; format: functional, cell-based;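 note: growth inhibition of human CaR-1 cancer cells, read out with a cell viability assay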
# Description: SANGER: Inhibition of human CaR-1 cell growth in a cell viability assay.
# [10] = tested on: HuP-T4; format: functional, cell-based;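 note: cell viability assay measuring how much HuP-T4 cell growth is inhibited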
# Description: SANGER: Inhibition of human HuP-T4 cell growth in a cell viability assay.
# [11] = tested on: A-375; format: functional, cell-based;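 note: growth inhibition of A375 cells, read out with a cell viability assay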
# Description: SANGER: Inhibition of human A375 cell growth in a cell viability assay.
# [12] = tested on: SW837; format: functional, cell-based;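 note: growth inhibition of SW837 cells, determined with a cell viability assay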
# Description: SANGER: Inhibition of human SW837 cell growth in a cell viability assay.
# [13] = tested on: BEN; format: functional, cell-based;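 note: growth inhibition of the BEN cell line, read out with a cell viability assay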
# Description: SANGER: Inhibition of human BEN cell growth in a cell viability assay.
# [14] = tested on: SJRH30; format: functional, cell-based;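 note: growth inhibition of human SJRH30 cells, read out with a cell viability assay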
# Description: SANGER: Inhibition of human SJRH30 cell growth in a cell viability assay.
# [15] = tested on: HO-1-N-1; format: functional, cell-based;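 note: growth inhibition of human HO-1-N-1 cells, read out with a cell viability assay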
# Description: SANGER: Inhibition of human HO-1-N-1 cell growth in a cell viability assay.
# [16] = tested on: PANC-03-27; format: functional, cell-based
# Description: SANGER: Inhibition of human PANC-03-27 cell growth in a cell viability assay.
# [17] = tested on: NCI-H1693; format: functional, cell-based;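 note: growth inhibition of the human cell line, read out with a cell viability assay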
# Description: SANGER: Inhibition of human NCI-H1693 cell growth in a cell viability assay.
# [18] = tested on: SK-MEL-28; format: functional, cell-based;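 note: growth inhibition of human SK-MEL-28 cells, read out with a cell viability assay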
# Description: SANGER: Inhibition of human SK-MEL-28 cell growth in a cell viability assay.
# [19] = tested on: LCLC-103H cell line; format: functional, cell-based
# Description: SANGER: Inhibition of human LCLC-103H cell growth in a cell viability assay.
# [20] = tested on: RVH-421; format: functional, cell-based
# Description: SANGER: Inhibition of human RVH-421 cell growth in a cell viability assay.
# [21] = tested on: CHL-1; format: functional, cell-based;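 note: cell growth inhibition, read out with a cell viability assay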
# Description: SANGER: Inhibition of human CHL-1 cell growth in a cell viability assay.
# [22] = tested on: OE19; format: functional, cell-based;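 note: growth inhibition of OE19 cells, measured through a cell viability read-out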
# Description: SANGER: Inhibition of human OE19 cell growth in a cell viability assay.
# [23] = tested on: COLO-792; format: functional, cell-based
# Description: SANGER: Inhibition of human COLO-792 cell growth in a cell viability assay.
# [24] = tested on: GCT; format: functional, cell-based;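 note: GCT cell line proliferation inhibition, read out with a cell viability assay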
# Description: SANGER: Inhibition of human GCT cell growth in a cell viability assay.
# [25] = tested on: G-401; format: functional, cell-based
# Description: SANGER: Inhibition of human G-401 cell growth in a cell viability assay.
# [26] = tested on: KYSE-520 cell line; format: functional, cell-based;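 note: growth inhibition of human KYSE-520 cells, read out with a viability assay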
# Description: SANGER: Inhibition of human KYSE-520 cell growth in a cell viability assay.
# [27] = tested on: HCC1954; format: functional, cell-based;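 note: growth inhibition of human HCC1954 cells, read out with a cell viability assay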
# Description: SANGER: Inhibition of human HCC1954 cell growth in a cell viability assay.
# [28] = tested on: SK-HEP1; format: functional, cell-based, SK-HEP-1;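 note: cell viability readout used to quantify reduction in proliferation of human SK-HEP-1 cells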
# Description: SANGER: Inhibition of human SK-HEP-1 cell growth in a cell viability assay.
# [29] = tested on: EFO-21; format: functional, cell-based;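 note: growth inhibition of EFO-21 cells measured with a viability assay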
# Description: SANGER: Inhibition of human EFO-21 cell growth in a cell viability assay.
# [30] = tested on: SNU-449; format: functional, cell-based
# Description: SANGER: Inhibition of human SNU-449 cell growth in a cell viability assay.
# [31] = tested on: KYSE-70 cell line; format: functional, cell-based;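 note: cell viability assay read-out, with IC50 expressing suppression of KYSE-70 cell growth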
# Description: SANGER: Inhibition of human KYSE-70 cell growth in a cell viability assay.
# [32] = tested on: U2OS; format: functional, cell-based, U-2-OS;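 note: growth inhibition of human U-2-OS cells, determined with a cell viability assay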
# Description: SANGER: Inhibition of human U-2-OS cell growth in a cell viability assay.
# [33] = tested on: MDA-MB-361; format: functional, cell-based
# [34] = tested on: KP-4; format: functional, cell-based;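 note: human KP-4 cells, with growth inhibition read out through a cell viability assay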
# Description: SANGER: Inhibition of human KP-4 cell growth in a cell viability assay.
# [35] = tested on: IGR-1; format: functional, cell-based;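 note: growth inhibition of human IGR-1 cells, read out with a cell viability assay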
# Description: SANGER: Inhibition of human IGR-1 cell growth in a cell viability assay.
# [36] = tested on: MDA-MB-157; format: functional, cell-based
# Description: SANGER: Inhibition of human MDA-MB-157 cell growth in a cell viability assay.
# [37] = tested on: ABC-1; format: functional, cell-based;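 note: growth inhibition of human ABC-1 cells, read out by a cell viability assay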
# Description: SANGER: Inhibition of human ABC-1 cell growth in a cell viability assay.
# [38] = tested on: CHP-212; format: functional, cell-based
# Description: SANGER: Inhibition of human CHP-212 cell growth in a cell viability assay.
smiles,measurement,setting,value
O=C1NC(=O)c2c1c(-c1ccccc1Cl)cc1[nH]c3ccc(O)cc3c21,IC50,[1],> 2000 nM
same,IC50,[2],> 2000 nM
same,IC50,[3],1720 nM
same,IC50,[4],> 2000 nM
same,IC50,[5],> 2000 nM
same,IC50,[6],> 2000 nM
same,IC50,[7],1310 nM
same,IC50,[8],> 2000 nM
same,IC50,[9],> 2000 nM
same,IC50,[10],> 2000 nM
same,IC50,[11],1520 nM
same,IC50,[12],> 2000 nM
same,IC50,[13],> 2000 nM
same,IC50,[14],> 2000 nM
same,IC50,[15],1390 nM
same,IC50,[16],1210 nM
same,IC50,[17],> 2000 nM
same,IC50,[18],> 2000 nM
same,IC50,[19],> 2000 nM
same,IC50,[20],> 2000 nM
same,IC50,[21],1050 nM
same,IC50,[22],> 2000 nM
same,IC50,[23],> 2000 nM
same,IC50,[24],> 2000 nM
same,IC50,[25],> 2000 nM
same,IC50,[26],> 2000 nM
same,IC50,[27],> 2000 nM
same,IC50,[28],> 2000 nM
same,IC50,[29],> 2000 nM
same,IC50,[30],> 2000 nM
same,IC50,[31],> 2000 nM
same,IC50,[32],1270 nM
same,IC50,[33],> 2000 nM
same,IC50,[34],> 2000 nM
same,IC50,[35],> 2000 nM
same,IC50,[36],> 2000 nM
same,IC50,[37],> 2000 nM
same,IC50,[38],619 nM
